PMC4830886, “Extended evaluation on the ES-D3 cell differentiation assay combined with the BeWo transport model, to predict relative developmental toxicity of triazole compounds” (Archives of Toxicology, 2015)

Columns and labels:
[1] = in vitro BeWo transport model (placental transfer); conditions: human
Description: (§1) To study placental transfer of test compounds, BeWo transport experiments were performed as described previously (Li et al. [2013]). Briefly, BeWo b30 cells (passages 27–45) were cultured in DMEM (Zwijndrecht, The Netherlands), supplemented with 10 % (v/v) heat-inactivated FCS (HyClone-Perbio, Etten-Leur, The Netherlands), 10,000 U/ml penicillin, 10 mg/ml streptomycin and 2 mM L-glutamine. The cells were seeded at a density of 1 × 10^5 cells/cm^2 on transwell® polycarbonate membranes (12 mm diameter, 0.4 μm pore size) (VWR International BV, Amsterdam, The Netherlands) coated with human placental collagen. The medium (0.5-ml apical compartment, 1.5-ml basolateral compartment) was replaced daily. At day 6 postseeding, the BeWo b30 cell layers were used for transport experiments. The barrier-forming capacity of the BeWo cell layers was evaluated by measuring the transepithelial electrical resistance (TEER) of the cell monolayer using a Millicell ERS-2 Volt-Ohm Meter (Millipore, USA) at day 6 postseeding as described previously (Li et al. [2013]). Only the cell layers showing TEER values between 80 and 100 Ω cm^2 were used for transport experiments.
(§2) Transport experiments were initiated by adding 0.5 ml of transport buffer Hank’s balanced salt solution (HBSS, Invitrogen, Breda, The Netherlands) containing the test compound, being 0594, 0595, 0596, 0599, 0600 and 0618, dissolved in DMSO (final solvent concentration 0.5 % DMSO), at concentration of 50 μM, to the apical compartment and 1.5 ml transport buffer to the basolateral compartment. Subsequently, the plate was incubated in a humidified atmosphere with 5 % CO2 at 37 °C. After 15, 30, 60 and 90 min, a sample of 0.2 ml was taken from the basolateral compartment and replaced by an equal volume of transport buffer. At the end of each experiment, a 0.2-ml sample was also taken from the apical compartment. Subsequently, the filters with the BeWo b30 cell layers were washed three times with PBS, cut out of the insert, dissolved in 0.25 ml 65 % (v/v) methanol and sonificated for 15 min in a Bandelin Sonorex RK100 (Berlin, Germany) in order to determine the amount of compound accumulated in the cells. After each experiment, mass balance calculations were performed. In each transport study, amoxicillin and antipyrine were included as control and reference compounds. Amoxicillin transport was included to assess for monolayer integrity since it is a compound known to be transported only to a limited extent across the placenta, whereas antipyrine was included as a control for optimal transport and a reference compound to enable calculation of relative transport rates (Li et al. [2013]). The transport of the six test compounds, as well as the reference compounds amoxicillin and antipyrine, through the permeable membrane of the transwell filter in the absence of BeWo cells was determined as well. […] For each test compound, three independent experiments were performed, with three technical replicates per experiment.
(§3) Samples were analyzed using high-performance liquid chromatography (HPLC) to quantify the amount of test compound in order to determine the transport rate and to perform mass balance calculations. The HPLC system used consisted of a Waters (Milford, MA) 600 controller and a 600 pump, equipped with a photodiode array detector set to record absorption of wavelengths between 200 and 400 nm. A Waters 717 plus autosampler was used for sample injection. The temperature of the autosampler was kept at 7 °C.
(§4) For analysis of all compounds, 50 μl sample was injected to a C18 5 μm reverse-phase column (150 mm × 4.6 mm I.D.) with a guard column (7.5 mm × 4.6 mm I.D.) (Alltech, Bergen op Zoom, The Netherlands). The mobile phase used for analysis of all the test compounds consisted of (A) 0.1 % trifluoroacetic acid in nanopure water and (B) HPLC-grade acetonitrile. Elution was at a flow rate of 0.8 ml/min, starting at 22 % B with a linear increase to 100 % B in 8 min.

[2] = test system: BeWo b30 cell layers; assay: in vitro BeWo transport model (placental transfer); conditions: BeWo cells, 50 μM (25 nmol) apical, at 90 min
Description: as §1, §2, §3, §4

[3] = WST-1 cytotoxicity assay with ES-D3 cells; format: cell-based; conditions: mouse, ES-D3 embryonic stem cells, WST-1, 5-day exposure, read-out: decline in cell viability
Description: The murine ES-D3 cell line was purchased from ATCC (Wesel, Germany). The cells were maintained in polystyrene cell culture flasks (Corning, The Netherlands) in Dulbecco’s modified Eagle’s medium (DMEM, Invitrogen, Breda, The Netherlands), supplemented with 20 % heat-inactivated fetal calf serum (Lonza, BioWhittaker, Verviers, Belgium), 50 U/ml penicillin with 50 μg/ml streptomycin (Invitrogen), 2 mM L-glutamine (Invitrogen), 0.1 mM β-mercaptoethanol (Sigma-Aldrich) and 1 % (v/v) nonessential amino acids (Invitrogen), at 37 °C and 5 % CO2 in a humidified atmosphere. Cells were kept undifferentiated with 1000 U/ml murine leukemia inhibiting factor (LIF) (Sigma-Aldrich) and subcultured every 2–3 days using nonenzymatic cell dissociation solution (Sigma-Aldrich) to detach the cells.
To determine cytotoxicity of the compounds, a WST-1 assay was performed. This assay measures the influence of test compounds on the formation of the water-soluble formazan reaction product from WST-1 by mitochondrial succinate-tetrazolium reductase enzymes. The cytotoxicity of a test compound inversely correlates with the absorbance of the produced formazan quantified spectrophotometrically as described previously (Reitsma et al. [2013]). ES-D3 cells were exposed to test compounds for the duration of 1 or 5 days as described before (Li et al. [2015]). Briefly, cells were seeded in 96-well plates (Greiner bio-one) at concentrations of 20 × 10^4 cells/ml (1-day exposure) or 1 × 10^4 cells/ml (5-day exposure) in 100 μl culture medium in the absence of LIF and incubated for 1 day to allow cell adherence. Then, the cells were exposed to the test compounds at concentrations up to 60 μM (final solvent concentration 0.2 % DMSO) and subsequently cultured for 1 or 5 days at 37 °C and 5 % CO2 in a humidified atmosphere. Solvent DMSO (0.2 %) was used as a negative control and 1 % Triton X-100 served as a positive control in all cytotoxicity assays. After incubation of 1 or 5 days, 20 μl WST-1 reagent (Roche, Woerden, The Netherlands) was added to each well and the plates were incubated for another 3 h. Then, absorbance was measured at 450 nm using a SpectraMax M2 (Molecular Devices, Sunnyvale, USA). Three wells were used per treatment in each independent experiment. Three independent experiments were done for each compound. The cell viability was expressed as % of the solvent control, with the solvent control set at 100 % viability. Reproducible results were obtained from the treatments of negative and positive controls in all of the cytotoxicity assays.

For `CC(c1nc(-c2ccc(C#N)cc2)cs1)C(O)(Cn1ccnc1)c1ccc(F)cc1` (stereo not drawn) [compound 0599, 4-[2-[2-(4-Fluorophenyl)-2-hydroxy-3-imidazol-1-yl-1-methyl-propyl]thiazol-4-yl]benzonitrile], the Papp at 30 min, 50 μM [1] was 18.4 ± 1.1 ×10⁻⁶ cm/s, the “Intracellular accumulation (% of added amount)” value [2] was 22 % of added amount and the cytotoxicity at 5 days, 60 µM [3] was 80%.
In the case of `CC1CC(C)OC(Cn2cncn2)(c2ccc(Oc3ccc(Cl)cc3)cc2Cl)O1` (stereo not drawn) [compound 0600, 1-[[2-[2-Chloro-4-(4-chlorophenoxy)phenyl]-4,6-dimethyl-1,3-dioxan-2-yl]methyl]-1,2,4-triazole], the Papp at 30 min, 50 μM [1] is reported as 7.9 ± 1 ×10⁻⁶ cm/s, the “Intracellular accumulation (% of added amount)” value [2] is reported as 66 % of added amount and the cytotoxicity at 5 days, 60 µM [3] is reported as 20%.
With `CC(c1nc(-c2ccc(C#N)cc2)cs1)C(O)(Cn1cncn1)c1ccc(F)cc1` (stereo not drawn) [compound 0596, 4-{2-[2-(4-Fluoro-phenyl)-2-hydroxy-1-methyl-3-[1,2,4]triazol-1-yl-propyl]-thiazol-4-yl}-benzonitrile] the Papp at 30 min, 50 μM [1] was 24.4 ± 2.7 ×10⁻⁶ cm/s, the “Intracellular accumulation (% of added amount)” value [2] was 12 % of added amount and the cytotoxicity at 5 days, 60 µM [3] was 70%.
In the case of `OC(c1cccnc1)c1c(-c2ccc(F)cc2F)csc1-c1ccc(F)cc1F` (stereo not drawn) [compound 0595, [2,4-Bis-(2,4-difluoro-phenyl)-thiophen-3-yl]-pyridin-3-yl-methanol], the Papp at 30 min, 50 μM [1] is reported as 3 ± 0.4 ×10⁻⁶ cm/s, the “Intracellular accumulation (% of added amount)” value [2] is reported as 79 % of added amount and the cytotoxicity at 5 days, 60 µM [3] is reported as 20%.
For `OC(c1cccnc1)c1c(-c2ccc(F)cc2F)noc1-c1ccc(Cl)cc1F` (stereo not drawn) [compound 0594, [5-(4-Chloro-2-fluoro-phenyl)-3-(2,4-difluoro-phenyl)-isoxazol-4-yl]-pyridin-3-yl-methanol], the Papp at 30 min, 50 μM [1] was 11.5 ± 2.6 ×10⁻⁶ cm/s, the “Intracellular accumulation (% of added amount)” value [2] was 24 % of added amount and the cytotoxicity at 5 days, 60 µM [3] was 30%.
